Converted amounts (≈) assume the structure as drawn. Where two headings read alike, the source gives them in different places.
Columns and labels:
[1] = tissue to plasma distribution; type: in vivo; settings: New Zealand White, rabbit, 2 x 10 mg/kg IV, 2 h after second dose, n = 3
Experimental: Three groups of White New Zealand rabbits (n = 3, each) weighing 3.0–3.5 kg were used. Each group received 10 mg/kg of one compounds administered intravenously over a period of 3–5 min, followed one hour later by a second IV dose of 10 mg/kg. Two h later, the rabbits were euthanized with an IV dose of pentobarbital. Plasma and tissue samples, including kidney, liver, lungs, spleen, heart, muscles, and vetrus fluid were collected immediately, and stored at −80 °C until analysis.
Plasma ultra-filtrate samples were analyzed using the same procedures for the plasma. Tissue homogenates were prepared by adding 1 gm of the tissues samples to 4 g of phosphate buffer, pH 7.4 (1:4, w/w), then homogenization using Tissue-Tearor, Bio-Spec Products Inc. (Bartlesville, OK, USA). Aliquots of 200 μL of tissue homogenate samples were analyzed using the procedures for the plasma and the concentrations were determined using plasma calibrators as described and validated previously for Lzd and PH027 [18].
The tissue to plasma concentration ratios for the three compounds were calculated from the ratio of the tissue homogenate concentrations corrected for the dilution during the homoginization process and the plasma concentrations. Generally, the three compounds have very good distribution to all tissues. The tissue to plasma distribution ratios for the novel compounds were more than one in kidney, lung, liver, heart, muscles and spleen, and the ratios were more than those for Lzd in all investigated tissues. Table 3, summerizes the tissue to plasma distribution ratios for the three compounds in different tissues.

Streptococcus pneumoniae = system: Streptococcus pneumoniae; set-up: method as in PMID 12467705, PMID 15911326, PMID 17140706, PMID 19376613, PMID 23811087; settings: cited from earlier work
S. aureus Giorgio = system: S. aureus Giorgio; set-up: method as in ref unpublished data from Jin-Hwan Kwak at Handong Global University; settings: oral suspension 1 and 4 h after infection, survival recorded for 72 h; ref unpublished data from Jin-Hwan Kwak at Handong Global University; cited from earlier work
[2] = set-up: method as in unpublished data from our laboratory; settings: rabbit urine after IV administration; ref unpublished data from our laboratory; cited from earlier work
[3] = solubility observed on preparing the oral dose in normal saline; type: physicochemical; settings: 20 mg/kg oral dose in 20 mL of warm normal saline
Experimental: Three groups of rabbits (n = 4, each) received 20 mg/kg oral dose of each compound. […] Accurately weighted amounts of each compound were dissolved/suspended in 20 mL of warm normal saline using an ultrasound water bath. […] The solutions/suspensions of the three compounds were administered orally to the rabbits using a pediatric feeding tubes. After oral administration of each compound, serial blood samples were obtained through the IV catheter, over a period of 10 h after administration. Plasma was obtained from blood by centrifugation, and samples were kept at −80 °C until analysis.

Heamophilus influenzae = system: Heamophilus influenzae; set-up: method as in PMID 12467705, PMID 15911326, PMID 17140706, PMID 19376613, PMID 23811087; settings: unit printed only for the neighbouring MICs of the sentence; cited from earlier work
[4] = brain, read-out: Tissue to Plasma Concentration Ratio, Brain
[5] = eye (vitreous fluid), read-out: Tissue to Plasma Concentration Ratio, Eye (vetrus fluid)
[6] = heart, read-out: Tissue to Plasma Concentration Ratio, Heart
[7] = kidney, read-out: Tissue to Plasma Concentration Ratio, Kidney
[8] = liver, read-out: Tissue to Plasma Concentration Ratio, Liver
[9] = lung, read-out: Tissue to Plasma Concentration Ratio, Lung
[10] = muscle, read-out: Tissue to Plasma Concentration Ratio, Muscles
[11] = spleen, read-out: Tissue to Plasma Concentration Ratio, Spleen

| Kp at 2 h [1, 4] | Kp at 2 h [1, 5] | Kp at 2 h [1, 6] | Kp at 2 h [1, 7] | Kp at 2 h [1, 8] | Kp at 2 h [1, 9] | Kp at 2 h [1, 10] | Kp at 2 h [1, 11] | SMILES | MIC (Streptococcus pneumoniae) | in vivo activity against systemic mice infection (S. aureus Giorgio) | main metabolic route [2] | solubility (observed) [3] | MIC (Heamophilus influenzae) |
| --- | --- | --- | --- | --- | --- | --- | --- | --- | --- | --- | --- | --- | --- |
| 0.223 ± 0.016 | 0.989 ± 0.1 | 1.36 ± 0.087 | 2.78 ± 0.089 | 2.91 ± 0.168 | 1.59 ± 0.041 | 1.25 ± 0.059 | 1.51 ± 0.026 | O=C1O[C@@H](Cn2ccnn2)CN1c1ccc(N2CCOCC2)c(F)c1 [PH027] | 0.5 µg/mL (≈ 1.44 µM) | lower in vivo activity | metabolized mainly through oxidation | – | – |
| 0.179 ± 0.07 | 0.81 ± 0.11 | 1.56 ± 0.22 | 2.22 ± 0.063 | 1.7 ± 0.19 | 1.5 ± 0.16 | 1.58 ± 0.21 | 1.41 ± 0.27 | O=C1O[C@@H](Cn2ccnn2)CN1c1ccc(N2CCN(C(=O)C(F)(F)F)CC2)c(F)c1 [PH051] | 1.0 µg/mL (≈ 2.26 µM) | lower in vivo activity | amide hydrolysis | least water-soluble of the three compounds | 64 µg/mL (≈ 145 µM) |
